Measured values from ChEMBL document CHEMBL5126664, “Anti-Epstein-Barr Viral Agents from the Medicinal Herb-Derived Fungus Alternaria alstroemeriae Km2286” (J Nat Prod, 2022).

Columns and labels:
Human gammaherpesvirus 4 [1] = experiment: Antiviral activity against EBV infected in P3HR1 cells assessed as decrease in Rta cells at 10 uM measured after 24 hrs by Western blot analysis relative to control; assay type: functional; details: human gammaherpesvirus 4, P3HR-1
BV-2 [2] = experiment: Antiinflammatory activity in mouse BV2 cells assessed as reduction in LPS-induced nitric oxide production at 10 uM by colorimetric assay relative to control; assay type: functional
[3] = Cytotoxicity against human P3HR1 cells; assay type: toxicity, cell-based, P3HR-1
[4] = Selectivity index, ratio of CC50 for human P3HR1 cells to EC50 for EBV; assay type: toxicity; details: read-out: Ratio CC50/EC50
BV-2 [5] = experiment: Antiinflammatory activity in mouse BV2 cells assessed as reduction in LPS-induced nitric oxide production by colorimetric assay; assay type: functional, cell-based
Human gammaherpesvirus 4 [6] = experiment: Antiviral activity against EBV infected in P3HR1 cells assessed as decrease in viral replication; assay type: functional, organism-based; details: human gammaherpesvirus 4, P3HR-1

SMILES: CC[C@H](C)[C@H]1NC(=O)C(C(C)=O)=C1O
- inhibition at 10 µM (Human gammaherpesvirus 4 [1]): -5%
- inhibition at 10 µM (BV-2 [2]): 41.1%

SMILES: CO[C@H]1c2c3c4c(c(O)ccc4c4ccc(O)c(c24)[C@@H](O)[C@H]1O)C(=O)C=C3
- CC50 [3]: 60.1 µM
- selectivity ratio [4]: 49.7
- inhibition at 10 µM (Human gammaherpesvirus 4 [1]): 100%
- IC50 (BV-2 [5]): 2.73 µM
- EC50 (Human gammaherpesvirus 4 [6]): 1.21 µM
- inhibition at 10 µM (BV-2 [2]): 105%

SMILES: O=C1C=Cc2c3c4c(c(O)ccc4c4ccc(O)c1c24)[C@@H](O)[C@@H](Cl)[C@H]3O
- CC50 [3]: 39.4 µM
- selectivity ratio [4]: 26.1
- inhibition at 10 µM (Human gammaherpesvirus 4 [1]): 100%
- IC50 (BV-2 [5]): 0.73 µM
- EC50 (Human gammaherpesvirus 4 [6]): 1.51 µM
- inhibition at 10 µM (BV-2 [2]): 94.9%

SMILES: O=C1C[C@H](SCC(O)C(=O)O)[C@@]2(O)c3c(ccc(O)c31)-c1ccc(O)c3c1[C@@H]2[C@@H](Cl)[C@H](O)[C@@H]3O (stereo partly drawn)
- CC50 [3]: 2.3 µM
- selectivity ratio [4]: 13.5
- inhibition at 10 µM (Human gammaherpesvirus 4 [1]): 100%
- IC50 (BV-2 [5]): 0.33 µM
- EC50 (Human gammaherpesvirus 4 [6]): 0.17 µM
- inhibition at 10 µM (BV-2 [2]): 102%

SMILES: O=C1C=Cc2c3c4c(c(O)ccc4c4ccc(O)c1c24)[C@@H](O)[C@H](Cl)[C@@H]3O
- CC50 [3]: > 100 µM
- selectivity ratio [4]: > 32
- inhibition at 10 µM (Human gammaherpesvirus 4 [1]): 100%
- IC50 (BV-2 [5]): 2.06 µM
- EC50 (Human gammaherpesvirus 4 [6]): 3.13 µM
- inhibition at 10 µM (BV-2 [2]): 76.2%

SMILES: O=C1C=Cc2c3c4c(c(O)ccc4c4ccc(O)c1c24)[C@@H](O)[C@H](O)[C@@H]3O
- CC50 [3]: 86.1 µM
- selectivity ratio [4]: 64.3
- inhibition at 10 µM (Human gammaherpesvirus 4 [1]): 100%
- EC50 (Human gammaherpesvirus 4 [6]): 1.34 µM
- inhibition at 10 µM (BV-2 [2]): 20.2%

SMILES: O=C1C[C@H](O)[C@H]2c3ccc(O)c4c3[C@H](c3ccc(O)c1c32)[C@@H](O)[C@@H](Cl)[C@@H]4O
- CC50 [3]: 61.2 µM
- selectivity ratio [4]: 25.3
- inhibition at 10 µM (Human gammaherpesvirus 4 [1]): 100%
- IC50 (BV-2 [5]): 4.08 µM
- EC50 (Human gammaherpesvirus 4 [6]): 2.42 µM
- inhibition at 10 µM (BV-2 [2]): 92.1%

SMILES: COc1cc(/C=C/C(=O)CC(=O)/C=C/c2ccc(O)c(OC)c2)ccc1O [CURCUMIN]
- IC50 (BV-2 [5]): 2.69 µM

SMILES: O=C1C[C@@H](O)[C@@H]2c3ccc(O)c4c3[C@@H](c3ccc(O)c1c32)[C@H](O)CC4=O [STEMPHYPERYLENOL]
- inhibition at 10 µM (Human gammaherpesvirus 4 [1]): 34%
- IC50 (BV-2 [5]): 3.25 µM
- inhibition at 10 µM (BV-2 [2]): 77.4%

SMILES: CC[C@H](C)[C@@H]1NC(=O)C(C(C)=O)=C1O [TENUAZONIC ACID]
- inhibition at 10 µM (Human gammaherpesvirus 4 [1]): 23%
- inhibition at 10 µM (BV-2 [2]): 62.9%
